The conditions of data set [1]: preclinical and clinical studies, cited from earlier work.
A further data set relates to muscarinic receptors. The settings on record: cited from earlier work.
In the next data set the target is T1, 5-HT3 receptor (Mus musculus, UniProt P23979).
T1 construct: host or cells: N1E-115 mouse neuroblastoma cells
T1 sequence (P23979 24-489): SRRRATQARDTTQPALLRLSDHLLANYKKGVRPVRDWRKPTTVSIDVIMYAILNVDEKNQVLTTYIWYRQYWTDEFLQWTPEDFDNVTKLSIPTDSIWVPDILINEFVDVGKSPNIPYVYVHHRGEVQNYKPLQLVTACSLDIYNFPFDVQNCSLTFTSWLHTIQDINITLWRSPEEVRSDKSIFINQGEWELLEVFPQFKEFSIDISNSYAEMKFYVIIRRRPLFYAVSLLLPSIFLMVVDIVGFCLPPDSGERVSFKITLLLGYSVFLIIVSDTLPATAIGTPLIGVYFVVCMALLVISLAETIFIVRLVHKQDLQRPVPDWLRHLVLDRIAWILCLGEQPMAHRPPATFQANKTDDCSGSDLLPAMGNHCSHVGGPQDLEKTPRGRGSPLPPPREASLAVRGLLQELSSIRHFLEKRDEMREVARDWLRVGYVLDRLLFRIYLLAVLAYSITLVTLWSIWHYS
The settings on record: radioligand binding; read-out: Ki, affinity for the 5-HT3 receptor; cited from earlier work.

The target in data set [2] is T2, Monoamine Oxidase-B (MAO-B) (Homo sapiens, UniProt P27338).
T2 sequence (P27338 1-520): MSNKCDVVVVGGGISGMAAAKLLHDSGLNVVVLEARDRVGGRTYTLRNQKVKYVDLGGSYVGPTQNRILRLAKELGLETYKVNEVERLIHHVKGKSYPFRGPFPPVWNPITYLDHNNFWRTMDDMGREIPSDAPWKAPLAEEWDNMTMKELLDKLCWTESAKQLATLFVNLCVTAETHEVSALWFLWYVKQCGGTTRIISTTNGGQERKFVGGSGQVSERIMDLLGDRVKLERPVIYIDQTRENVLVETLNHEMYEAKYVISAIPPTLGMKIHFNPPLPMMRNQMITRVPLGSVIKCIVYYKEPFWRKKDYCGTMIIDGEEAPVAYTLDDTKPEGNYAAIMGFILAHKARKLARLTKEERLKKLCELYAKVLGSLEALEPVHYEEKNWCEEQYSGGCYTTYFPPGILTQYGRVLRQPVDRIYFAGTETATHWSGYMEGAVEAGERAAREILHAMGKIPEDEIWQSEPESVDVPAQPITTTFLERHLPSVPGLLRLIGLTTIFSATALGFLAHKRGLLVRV
The settings on record: cited from earlier work.

In data set [3] the test system is α1, α2, β1, β2, 5-HT1, 5-HT1A, 5-HT1C, 5-HT2, 5-HT4, 5-HT6, 5-HT7, D1, D2, Muscarinic, M1, M2, M3, Nicotonic, H1, H2, GABA-A, GABA-B, BZP, Opiate …. The settings on record: all receptors of the panel other than 5-HT3; read-out: IC50, binding to the additional receptors tested; cited from earlier work.
Data set [4] has as its target T3, Monoamine Oxidase-A (MAO-A) (Homo sapiens, UniProt P21397).
T3 sequence (P21397 1-527): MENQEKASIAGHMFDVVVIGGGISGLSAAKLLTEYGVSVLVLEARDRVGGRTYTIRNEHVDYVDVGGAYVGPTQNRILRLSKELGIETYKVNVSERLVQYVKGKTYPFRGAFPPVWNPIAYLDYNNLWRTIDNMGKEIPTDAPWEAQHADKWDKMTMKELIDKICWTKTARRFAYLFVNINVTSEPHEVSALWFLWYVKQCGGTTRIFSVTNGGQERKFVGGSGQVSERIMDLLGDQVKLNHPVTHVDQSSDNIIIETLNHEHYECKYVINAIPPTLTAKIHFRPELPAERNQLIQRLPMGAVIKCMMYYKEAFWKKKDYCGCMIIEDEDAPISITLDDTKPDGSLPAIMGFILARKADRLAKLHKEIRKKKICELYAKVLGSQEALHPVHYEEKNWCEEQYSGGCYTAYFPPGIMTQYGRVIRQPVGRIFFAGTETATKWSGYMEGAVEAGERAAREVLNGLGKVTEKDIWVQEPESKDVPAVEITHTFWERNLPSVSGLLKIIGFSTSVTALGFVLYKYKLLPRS
The settings on record: cited from earlier work.

Data set [5] relates to bladder capacity during acetic acid irritation. Briefly: Dilute Acetic Acid Model-Cats, cystometry. It counts as in vivo, cat. As to the method:
Six alpha-chloralose anesthetized (50-100 mg/kg) normal female cats (2.5-3.5 kg; Harlan) were utilized in this study.
MCI-225 was dissolved in 5% methylcellulose in water at 3.0, 10.0 or 30 mg/ml Animals were dosed by volume of injection=body weight in kg.
Female cats (2.5-3.5 kg; Harlan) had their food removed the night before the study. The following morning, the cats were anesthetized with isoflurane and prepped for surgery using aseptic technique. Polyethylene catheters were surgically placed to permit the measurement of bladder pressure, urethral pressure, arterial pressure, respiratory rate as well as for the delivery of drugs. Fine wire electrodes were implanted alongside the external urethral anal sphincter. Following surgery, the cats were slowly switched from the gas anesthetic isoflurane (2-3.5%) to alpha-chloralose (50-100 mg/kg). During control cystometry, saline was slowly infused into the bladder (0.5-1.0 ml/min) for 1 hour. The control cystometry was followed by 0.5% acetic acid in saline for the duration of the experiment. After assessing the cystometric variables under these baseline conditions, the effects of MCI-225 on bladder capacity were determined via a 3 point dose response protocol.
Data was analyzed using a non-parametric One-Way ANOVA (Friedman Test) with the post-hoc Dunn's multiple comparison t test. P<0.05 was considered significant.

Data set [6] shares this test system. Briefly: Dilute Acetic Acid Model-rats, filling cystometry. It counts as in vivo, rat. The settings on record: for bladder capacity vs AA/Veh 3: rats, intraduodenal. The text has this: Female rats (250-275 g BW, n=8) were anesthetized with urethane (1.2 g/kg) and a saline-filled catheter (PE-50) was inserted into the proximal duodenum for intraduodenal drug administration. A flared-tipped PE-50 catheter was inserted into the bladder dome, via a midline lower abdominal incision, for bladder filling and pressure recording and secured by ligation. The abdominal cavity was moistened with saline and closed by covering with a thin plastic sheet in order to maintain access to the bladder for emptying purposes. Fine silver or stainless steel wire electrodes were inserted into the external urethral sphincter (EUS) percutaneously for electromyography (EMG). Animals were positioned on a heating pad which maintained body temperature at 37° C.
Saline and all subsequent infusates were continuously infused at a rate of about 0.055 ml/min via the bladder filling catheter for about 60 minutes to obtain a baseline of lower urinary tract activity (continuous cystometry; CMG). […] Bladder capacity (ml) was calculated as the flow rate of the bladder filling solution (ml/min) multiplied by the elapsed time between commencement of bladder filling and occurrence of bladder contraction (min).
Following the control period, a 0.25% acetic acid solution in saline (AA) was infused into the bladder to induce bladder irritation. […] Following injection of the third vehicle control, bladder capacity was again measured, as described above but using AA to fill the bladder. […] Bladder capacity was measured as described above using AA to fill the bladder, at 20 and 50 minutes following each subsequent drug treatment.
Bladder capacity was determined for each treatment regimen as described above (flow rate of the bladder filling solution (ml/min) multiplied by the elapsed time between commencement of bladder filling and occurrence of bladder contraction (min)) and converted to % Bladder Capacity normalized to the last vehicle measurement of the AA/Veh 3 treatment group. Data were then analyzed by non-parametric ANOVA for repeated measures (Friedman Test) with Dunn's Multiple Comparison test. […]

Where only a bound is given, the exact number is not on record here.

As for `CC(OC(=O)NCC1(CC(=O)O)CCCCC1)OC(=O)C(C)C` (stereo not drawn) [XP13512], the “blood levels of gabapentin after XP13512” value in data set [1] (broad range of oral doses) is “dose proportional blood levels of gabapentin”. In addition, in data set [1], the “absorption from the large intestine” value was “absorbed efficiently from the large intestine”.
On to `Cc1cc2c(-c3ccccc3F)nc(N3CCNCC3)nc2s1` [MCI-225, 4-(2-fluorophenyl)-6-methyl-2-(1-piperazinyl)thieno[2,3-d]pyrimidine], for which, in the data set on muscarinic receptors, the anticholinergic activity entry is recorded as “substantially no anticholinergic activity”. In addition, the Ki at 5-HT3 receptor was less than 100 nM. In addition, in data set [2], the “inhibition of MAO-B activity” value is reported as “did not inhibit”. Moreover, the IC50 in data set [3] was more than 1000 nM. Moreover, in data set [4], the “inhibition of MAO-A activity” value is given as “did not inhibit”. Moreover, the “bladder capacity following acetic acid irritation” value in data set [5] (cats n=6, 3 point dose response 3, 10, 30 mg/kg, P<0.0103) was “significant dose-dependent increase in bladder capacity”. Also, the “bladder capacity, individual dose significance” value in data set [5] (cats, 30 mg/kg, P<0.05) is “individual dose significance attained”. Moreover, the “bladder capacity (% normalized to AA/Veh 3)” value in data set [6] (rats n=8, intraduodenal, cumulative 3-30 mg/kg, p=0.0005 Friedman test) is given as “dose-dependent increase in bladder capacity”. Also, the “bladder capacity vs AA/Veh 3” value in data set [6] (10 mg/kg, p<0.05 Dunn's test) is “significantly higher than AA/Veh 3”; in data set [6] (30 mg/kg, p<0.001 Dunn's test), “significantly higher than AA/Veh 3”.

Usually Ki stands for the equilibrium dissociation constant of an inhibitor or competing ligand from its target. A word on the IC50: it is the midpoint of a concentration-inhibition curve.
